In ChEMBL document CHEMBL1201862, “PubChem BioAssay data set” (2004):
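These data come from cells grown in 96-well plates and exposed to compound for 48 hours at five concentrations. At the GI50, growth is halved.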 Activity calls are given as the source filed them. No stated cut-off is given here; in the data, active = GI50 up to about 1.1 µM and inactive = higher.

Tests used:
Assay in all cases: DTP human tumour cell line panel, 48 h
CCRF-CEM = tested on: CCRF-CEM
COLO 205 = tested on: COLO 205
EKVX = tested on: EKVX
HL-60 = tested on: HL-60
HOP-92 = tested on: HOP-92
MDA-N = tested on: MDA-N
NCI-H23 = tested on: NCI-H23
NCI-H522 = tested on: NCI-H522
OVCAR-4 = tested on: OVCAR-4
OVCAR-8 = tested on: OVCAR-8
RXF 393 = tested on: RXF 393
SK-OV-3 = tested on: SK-OV-3
SN12C = tested on: SN12C
SW-620 = tested on: SW-620
T47D = tested on: T47D
UO-31 = tested on: UO-31
SNB-19 = tested on: SNB-19

Structure (SMILES) | GI50 (CCRF-CEM) | GI50 (COLO 205) | GI50 (EKVX) | GI50 (HL-60) | GI50 (HOP-92) | GI50 (MDA-N) | GI50 (NCI-H23) | GI50 (NCI-H522) | GI50 (OVCAR-4) | GI50 (OVCAR-8) | GI50 (RXF 393) | GI50 (SK-OV-3) | GI50 (SN12C) | GI50 (SW-620) | GI50 (T47D) | GI50 (UO-31) | GI50 (SNB-19)
CC1(C)CCCC2(C)C3=C(CCC12)C(=O)OC3 (stereo unspecified) | > 100 µM (inactive) | > 100 µM (inactive) | > 100 µM (inactive) | 17.6 µM (inactive) | > 100 µM (inactive) | > 100 µM (inactive) | > 100 µM (inactive) | > 100 µM (inactive) | 55.7 µM (inactive) | > 100 µM (inactive) | 62.2 µM (inactive) | > 100 µM (inactive) | > 100 µM (inactive) | > 100 µM (inactive) | 59.2 µM (inactive) | 38.9 µM (inactive) | –
O=C1N/N=C\Nc2ccc(cc2)S(=O)(=O)c2ccc(cc2)/N=C\NNC1=O | – | > 100 µM (inactive) | > 100 µM (inactive) | 10.1 µM (inactive) | > 100 µM (inactive) | > 100 µM (inactive) | > 100 µM (inactive) | > 100 µM (inactive) | > 100 µM (inactive) | > 100 µM (inactive) | > 100 µM (inactive) | > 100 µM (inactive) | > 100 µM (inactive) | > 100 µM (inactive) | > 100 µM (inactive) | > 100 µM (inactive) | > 100 µM (inactive)
COc1cc(-c2cc(=O)c3c(OC)c(OC)c(OC)c(OC)c3o2)c(OC)c(OC)c1OC | 50.7 µM (inactive) | 45.8 µM (inactive) | 66.8 µM (inactive) | 46.7 µM (inactive) | 13.9 µM (inactive) | 41.4 µM (inactive) | – | 20.7 µM (inactive) | 30.7 µM (inactive) | 28.6 µM (inactive) | 28.6 µM (inactive) | 76.7 µM (inactive) | 35.2 µM (inactive) | 45.3 µM (inactive) | 16.2 µM (inactive) | 21.6 µM (inactive) | 98.6 µM (inactive)
CN1c2ccc(O)c(O)c2-c2cc(O)cc3c2C1CCC3 (stereo unspecified) | 2.58 µM (inactive) | 20.7 µM (inactive) | 20.7 µM (inactive) | 14.6 µM (inactive) | 13.9 µM (inactive) | 16.9 µM (inactive) | 22.9 µM (inactive) | 4.5 µM (inactive) | 13.4 µM (inactive) | 19.1 µM (inactive) | 7.23 µM (inactive) | 51.9 µM (inactive) | 17.5 µM (inactive) | 17.5 µM (inactive) | 15.9 µM (inactive) | 13.6 µM (inactive) | 63.5 µM (inactive)
Cc1cc(S(=O)(=O)Nc2n[nH]c(-c3ccc(Cl)cc3)n2)c(SSc2cc(Cl)c(C)cc2S(=O)(=O)Nc2n[nH]c(-c3ccc(Cl)cc3)n2)cc1Cl | 25.9 µM (inactive) | 25.9 µM (inactive) | 32.5 µM (inactive) | 23.2 µM (inactive) | 25.1 µM (inactive) | 41.3 µM (inactive) | 34.5 µM (inactive) | 32.2 µM (inactive) | 28.5 µM (inactive) | 34.4 µM (inactive) | 25.1 µM (inactive) | 39.5 µM (inactive) | 43.6 µM (inactive) | 24.8 µM (inactive) | 14.6 µM (inactive) | 29.4 µM (inactive) | –
CCc1n[nH]c(=O)n1/N=C/c1ccccc1Cl | > 100 µM (inactive) | > 100 µM (inactive) | 1.42 µM (inactive) | > 100 µM (inactive) | 74.8 µM (inactive) | > 100 µM (inactive) | > 100 µM (inactive) | > 100 µM (inactive) | > 100 µM (inactive) | > 100 µM (inactive) | 0.474 µM (active) | > 100 µM (inactive) | > 100 µM (inactive) | > 100 µM (inactive) | > 100 µM (inactive) | > 100 µM (inactive) | > 100 µM (inactive)
COC(=O)[C@@]12CC[C@]1(C(=O)OC)C1C(C)=CC(=O)O[C@@]12C (stereo partly specified) | > 100 µM (inactive) | > 100 µM (inactive) | > 100 µM (inactive) | > 100 µM (inactive) | > 100 µM (inactive) | > 100 µM (inactive) | > 100 µM (inactive) | > 100 µM (inactive) | > 100 µM (inactive) | > 100 µM (inactive) | > 100 µM (inactive) | > 100 µM (inactive) | > 100 µM (inactive) | > 100 µM (inactive) | > 100 µM (inactive) | > 100 µM (inactive) | > 100 µM (inactive)
O=S(=O)(O)c1ccc2cc(/N=N/c3c(O)ccc4ccccc34)ccc2c1 | > 100 µM (inactive) | > 100 µM (inactive) | > 100 µM (inactive) | > 100 µM (inactive) | > 100 µM (inactive) | > 100 µM (inactive) | > 100 µM (inactive) | > 100 µM (inactive) | > 100 µM (inactive) | > 100 µM (inactive) | > 100 µM (inactive) | > 100 µM (inactive) | > 100 µM (inactive) | > 100 µM (inactive) | > 100 µM (inactive) | > 100 µM (inactive) | > 100 µM (inactive)
C=C1C(=O)O[C@@H]2O[C@@]3(C)CC[C@H]4[C@H](C)CC[C@@H]1[C@@]24O3 [DEOXYARTEMISITENE] | 3.47 µM (inactive) | 11.9 µM (inactive) | 13.3 µM (inactive) | 2.63 µM (inactive) | 3.49 µM (inactive) | 13.7 µM (inactive) | 15.2 µM (inactive) | 6.58 µM (inactive) | 15.8 µM (inactive) | – | 14.4 µM (inactive) | 36.1 µM (inactive) | 19 µM (inactive) | 15.5 µM (inactive) | 13.6 µM (inactive) | 19.3 µM (inactive) | 47.2 µM (inactive)
CC(C)(C)OCC1NC(=O)[C@@H]2Cc3c([nH]c4ccccc34)C(C3CCCCC3)N2C1=O (stereo partly specified) | – | 20.7 µM (inactive) | 27.2 µM (inactive) | 23 µM (inactive) | 22.1 µM (inactive) | 16.7 µM (inactive) | 21.8 µM (inactive) | 16.5 µM (inactive) | 23.9 µM (inactive) | 29.9 µM (inactive) | 15.6 µM (inactive) | 51.4 µM (inactive) | 19.6 µM (inactive) | 25.3 µM (inactive) | 20.6 µM (inactive) | 32.9 µM (inactive) | 37.3 µM (inactive)
O=C(N/N=C\c1cccc2c([N+](=O)[O-])cccc12)Nc1ccccc1 | 10.5 µM (inactive) | 18.5 µM (inactive) | 15.5 µM (inactive) | 14.7 µM (inactive) | 12.3 µM (inactive) | 13.1 µM (inactive) | 15.8 µM (inactive) | 14.6 µM (inactive) | 11.6 µM (inactive) | 12 µM (inactive) | 7.53 µM (inactive) | – | 4.59 µM (inactive) | 13.2 µM (inactive) | 6.04 µM (inactive) | 13.2 µM (inactive) | 14.6 µM (inactive)
CCN(CC)CCn1c2cc3c(cc2c(=O)c2cccnc21)OCO3 | 5.31 µM (inactive) | 2.85 µM (inactive) | 5.14 µM (inactive) | 4.58 µM (inactive) | 6.95 µM (inactive) | 8.93 µM (inactive) | 8.75 µM (inactive) | 6.71 µM (inactive) | 5.36 µM (inactive) | 4.62 µM (inactive) | 5.86 µM (inactive) | 9.84 µM (inactive) | 6.4 µM (inactive) | 4.26 µM (inactive) | > 10 µM (inactive) | – | 8.07 µM (inactive)
